Test results taken from ChEMBL document CHEMBL1201862, “PubChem BioAssay data set” (2004).
Activity calls are given as the source filed them.

Assays:
Bcl-2-related protein A1 [1] = target: T1, Bcl-2-related protein A1 (Mus musculus, UniProt Q07440); experiment: small-molecule antagonists of Bfl-1/BH3 interaction – biochemical, TR-FRET, mouse Bfl-1, confirmation (AID 621);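 note: TR-FRET binding of GST-Bfl-1 to FITC-labelled Bid peptide via terbium antibody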
T1 sequence (Q07440 whole entry): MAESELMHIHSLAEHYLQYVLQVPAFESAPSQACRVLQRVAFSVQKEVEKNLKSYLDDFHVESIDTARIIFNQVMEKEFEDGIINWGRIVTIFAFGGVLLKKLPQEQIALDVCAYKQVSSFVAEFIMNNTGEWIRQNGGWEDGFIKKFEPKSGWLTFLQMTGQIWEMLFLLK

Bcl-2-related protein A1 [2] = target: T1, Bcl-2-related protein A1; experiment: Bfl-1 binding inhibitors, SAR follow-up, biochemical, fluorescence polarization (AID 1070)
[3] = viability loss in HepG2 hepatoma cells – cell-based, ATP luminescence, cherry-pick, activator set 2, cytotoxicity control, dose response (AID 1053143); assay type: functional
Beta-lactamase [4] = target: Beta-lactamase (Salmonella choleraesuis (strain SC-B67), UniProt Q5J463); experiment: Epi-absorbance-based counterscreen for selective VIM-2 inhibitors: dose response biochemical high throughput screening assay to identify inhibitors of TEM-1 serine-beta-lactamase.
Beta-lactamase (Salmonella choleraesuis (strain SC-B67), UniProt Q5J463), sequence (Q5J463 whole entry): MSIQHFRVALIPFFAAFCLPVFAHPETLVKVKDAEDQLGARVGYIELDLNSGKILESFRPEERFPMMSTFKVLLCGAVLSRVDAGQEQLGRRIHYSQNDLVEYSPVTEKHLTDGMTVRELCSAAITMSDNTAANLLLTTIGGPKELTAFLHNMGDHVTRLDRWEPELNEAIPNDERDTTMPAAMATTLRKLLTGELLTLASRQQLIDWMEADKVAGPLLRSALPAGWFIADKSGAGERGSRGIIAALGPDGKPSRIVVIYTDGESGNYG

Beta-lactamase [5] = target: T2, Beta-lactamase (Pseudomonas aeruginosa, UniProt Q79MP6); experiment: inhibition of IMP-1 beta-lactamase activity – biochemical, epi-absorbance, selectivity assay for VIM-2 inhibitor project, dose response (AID 1920)
T2 sequence (Q79MP6 whole entry): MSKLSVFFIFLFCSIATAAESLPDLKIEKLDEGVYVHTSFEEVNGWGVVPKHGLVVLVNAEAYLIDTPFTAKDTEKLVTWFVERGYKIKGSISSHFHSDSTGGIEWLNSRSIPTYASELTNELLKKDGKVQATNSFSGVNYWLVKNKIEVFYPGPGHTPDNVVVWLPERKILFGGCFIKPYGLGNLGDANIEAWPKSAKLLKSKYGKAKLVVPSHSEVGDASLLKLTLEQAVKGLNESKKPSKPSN

Beta-lactamase [6] = target: T2, Beta-lactamase; experiment: […] counterscreen for selective VIM-2 inhibitors: dose response biochemical high throughput screening assay to identify inhibitors of IMP-1 metallo-beta-lactamase.
cells [7] = assay type: functional, cell-based
cells [8] = assay type: functional, cell-based; remark: listed apart in the source
[9] = target: Fructose-bisphosphate aldolase (Mycobacterium tuberculosis, UniProt P9WQA3); experiment: Fluorescence-based biochemical high throughput dose response assay for inhibitors of the fructose-bisphosphate aldolase (FBA) of M. tuberculosis.; assay type: functional
Fructose-bisphosphate aldolase, sequence (P9WQA3 whole entry): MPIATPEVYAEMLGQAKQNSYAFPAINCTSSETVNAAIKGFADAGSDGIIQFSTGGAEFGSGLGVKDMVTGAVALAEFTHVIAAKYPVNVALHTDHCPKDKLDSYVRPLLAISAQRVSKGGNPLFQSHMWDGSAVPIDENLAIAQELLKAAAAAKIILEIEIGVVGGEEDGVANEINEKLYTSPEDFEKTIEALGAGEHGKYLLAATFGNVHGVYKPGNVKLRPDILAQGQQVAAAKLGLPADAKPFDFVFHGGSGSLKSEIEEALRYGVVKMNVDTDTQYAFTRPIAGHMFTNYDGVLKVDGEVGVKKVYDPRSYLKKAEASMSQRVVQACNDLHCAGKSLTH

Caspase-3 = target: T3, Caspase-3 (Homo sapiens, UniProt P42574); assay type: functional;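 note: Dose-response selectivity test against caspase-3 for candidate inhibitors of sentrin-specific proteases (SENPs)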
T3 sequence (P42574 whole entry): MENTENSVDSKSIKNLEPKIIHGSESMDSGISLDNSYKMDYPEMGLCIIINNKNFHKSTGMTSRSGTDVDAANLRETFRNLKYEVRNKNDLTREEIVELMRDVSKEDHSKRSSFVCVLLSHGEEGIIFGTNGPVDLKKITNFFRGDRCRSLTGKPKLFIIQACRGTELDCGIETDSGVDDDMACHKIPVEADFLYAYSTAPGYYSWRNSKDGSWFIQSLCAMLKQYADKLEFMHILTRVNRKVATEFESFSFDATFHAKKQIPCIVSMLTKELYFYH

[10] = target: T4, Sentrin-specific protease 7 (Homo sapiens, UniProt Q9BQF6); assay type: functional;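 note: Luminescence-based dose-response confirmation of ultra-high-throughput screening hits, measuring inhibition of SENP7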
T4 sequence (Q9BQF6 whole entry): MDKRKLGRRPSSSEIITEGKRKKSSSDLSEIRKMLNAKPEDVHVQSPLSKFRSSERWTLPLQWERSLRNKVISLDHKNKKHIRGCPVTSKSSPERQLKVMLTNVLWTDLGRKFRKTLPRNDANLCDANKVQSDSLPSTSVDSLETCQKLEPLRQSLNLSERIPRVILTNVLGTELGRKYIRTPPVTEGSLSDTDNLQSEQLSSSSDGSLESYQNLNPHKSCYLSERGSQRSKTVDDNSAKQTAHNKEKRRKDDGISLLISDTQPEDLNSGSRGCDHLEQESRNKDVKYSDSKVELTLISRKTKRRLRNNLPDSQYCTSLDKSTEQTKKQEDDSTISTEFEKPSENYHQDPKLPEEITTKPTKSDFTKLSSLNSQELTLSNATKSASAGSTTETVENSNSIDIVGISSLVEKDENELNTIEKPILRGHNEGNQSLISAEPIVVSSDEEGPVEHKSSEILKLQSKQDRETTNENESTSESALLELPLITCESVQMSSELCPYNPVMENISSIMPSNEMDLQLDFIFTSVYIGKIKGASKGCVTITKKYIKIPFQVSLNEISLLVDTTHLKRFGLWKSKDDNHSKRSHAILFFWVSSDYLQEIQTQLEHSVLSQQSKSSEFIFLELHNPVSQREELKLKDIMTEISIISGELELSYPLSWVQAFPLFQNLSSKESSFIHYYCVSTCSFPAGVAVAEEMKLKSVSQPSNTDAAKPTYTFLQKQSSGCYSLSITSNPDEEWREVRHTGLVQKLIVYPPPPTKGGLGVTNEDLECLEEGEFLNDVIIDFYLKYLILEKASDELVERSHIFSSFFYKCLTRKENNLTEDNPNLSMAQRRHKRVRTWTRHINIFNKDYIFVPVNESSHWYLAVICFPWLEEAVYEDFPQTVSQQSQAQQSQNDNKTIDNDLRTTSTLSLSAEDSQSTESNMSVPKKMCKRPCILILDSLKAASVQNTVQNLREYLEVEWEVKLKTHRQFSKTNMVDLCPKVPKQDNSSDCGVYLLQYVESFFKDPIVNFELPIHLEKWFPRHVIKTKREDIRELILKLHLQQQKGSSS

[11] = target: T5, Sentrin-specific protease 6 (Homo sapiens, UniProt Q9GZR1); assay type: functional;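 note: Luminescence-based dose-response confirmatory assay of SENP6 inhibition, following up an ultra-high-throughput screen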
T5 sequence (Q9GZR1 whole entry): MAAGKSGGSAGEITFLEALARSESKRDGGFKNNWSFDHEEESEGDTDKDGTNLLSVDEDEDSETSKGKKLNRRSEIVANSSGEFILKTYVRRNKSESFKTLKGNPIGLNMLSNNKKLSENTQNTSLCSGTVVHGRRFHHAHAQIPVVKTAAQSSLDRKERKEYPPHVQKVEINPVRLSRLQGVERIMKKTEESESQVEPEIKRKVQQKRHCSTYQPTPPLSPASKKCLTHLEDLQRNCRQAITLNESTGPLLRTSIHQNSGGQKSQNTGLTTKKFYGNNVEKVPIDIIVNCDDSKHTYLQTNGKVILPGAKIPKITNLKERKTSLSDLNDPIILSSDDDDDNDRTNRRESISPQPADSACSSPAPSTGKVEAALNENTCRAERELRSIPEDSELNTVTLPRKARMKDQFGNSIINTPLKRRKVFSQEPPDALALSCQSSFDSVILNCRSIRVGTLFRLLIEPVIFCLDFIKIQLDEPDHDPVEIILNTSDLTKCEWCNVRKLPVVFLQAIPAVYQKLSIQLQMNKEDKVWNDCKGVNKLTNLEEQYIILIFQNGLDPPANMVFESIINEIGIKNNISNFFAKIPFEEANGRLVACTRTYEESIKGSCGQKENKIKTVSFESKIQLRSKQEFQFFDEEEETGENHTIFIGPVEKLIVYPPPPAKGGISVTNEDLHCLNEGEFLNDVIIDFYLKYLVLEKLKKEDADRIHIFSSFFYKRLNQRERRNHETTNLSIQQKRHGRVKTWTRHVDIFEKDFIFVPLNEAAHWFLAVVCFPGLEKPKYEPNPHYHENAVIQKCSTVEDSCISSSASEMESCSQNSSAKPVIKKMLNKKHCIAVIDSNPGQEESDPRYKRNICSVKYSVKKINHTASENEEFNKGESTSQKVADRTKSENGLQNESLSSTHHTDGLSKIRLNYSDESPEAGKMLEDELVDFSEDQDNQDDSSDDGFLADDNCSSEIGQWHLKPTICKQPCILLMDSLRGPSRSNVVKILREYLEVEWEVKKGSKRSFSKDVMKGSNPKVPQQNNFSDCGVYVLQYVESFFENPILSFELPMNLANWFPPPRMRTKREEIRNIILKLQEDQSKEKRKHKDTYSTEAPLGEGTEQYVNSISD

[12] = target: T6, Sentrin-specific protease 8 (Homo sapiens, UniProt Q96LD8); assay type: functional;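 note: luminescence read-out of SENP8 inhibition, dose-response confirmation following an ultra-high-throughput screen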
T6 sequence (Q96LD8 whole entry): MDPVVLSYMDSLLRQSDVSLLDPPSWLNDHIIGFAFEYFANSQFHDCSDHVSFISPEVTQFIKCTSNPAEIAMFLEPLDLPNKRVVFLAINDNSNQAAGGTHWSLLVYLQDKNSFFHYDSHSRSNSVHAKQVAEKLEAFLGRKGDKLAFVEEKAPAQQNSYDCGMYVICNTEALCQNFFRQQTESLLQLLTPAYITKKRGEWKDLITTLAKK

[13] = Counterscreen for […] of the human trace amine associated receptor 1 (TAAR1): Fluorescence-based cell-based high throughput dose response assay to identify nonselective Ga16 agonists.; assay type: functional
[14] = target: T7, Trace amine-associated receptor 1 (Homo sapiens, UniProt Q96RJ0); experiment: Fluorescence-based cell-based high throughput dose response assay to identify antagonists of the human trace amine associated receptor 1 (TAAR1).; assay type: functional
T7 sequence (Q96RJ0 whole entry): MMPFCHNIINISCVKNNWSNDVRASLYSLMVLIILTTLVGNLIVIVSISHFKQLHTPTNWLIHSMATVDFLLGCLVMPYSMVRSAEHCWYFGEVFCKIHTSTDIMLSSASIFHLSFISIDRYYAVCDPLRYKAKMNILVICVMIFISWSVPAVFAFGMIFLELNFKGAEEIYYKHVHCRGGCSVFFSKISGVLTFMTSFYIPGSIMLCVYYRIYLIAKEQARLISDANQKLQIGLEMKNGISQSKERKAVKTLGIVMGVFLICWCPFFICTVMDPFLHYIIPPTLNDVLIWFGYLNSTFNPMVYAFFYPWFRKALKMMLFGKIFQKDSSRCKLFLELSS

[15] = Counterscreen for antagonists of the human trace amine associated receptor 1 (hTAAR1): Fluorescence-based cell-based high throughput dose response assay to identify nonselective Ga16 antagonists.; assay type: functional
[16] = target: T7, Trace amine-associated receptor 1; experiment: Counterscreen for antagonists of the human trace amine associated receptor 1 (hTAAR1): Fluorescence-based cell-based high throughput dose response assay to identify TAAR1 Agonists.; assay type: functional
cells [17] = assay type: functional, cell-based; remark: listed apart in the source
[18] = target: T7, Trace amine-associated receptor 1; experiment: Fluorescence-based cell-based high throughput dose response assay to identify agonists of the human trace amine associated receptor 1 (TAAR1).; assay type: functional
[19] = target: T7, Trace amine-associated receptor 1; experiment: Counterscreen for agonists of the human trace amine associated receptor 1 (hTAAR1): Fluorescence-based cell-based high throughput dose response assay to identify hTAAR1 agonist that also desensitize TAAR1 receptor response.; assay type: functional
cells [20] = assay type: functional, cell-based; remark: listed apart in the source
[21] = target: Ras and Rab interactor 1/Tyrosine-protein kinase ABL1 (Homo sapiens, UniProt P00519+Q13671); assay type: functional;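 note: biochemical TR-FRET dose-response test measuring inhibition of binding between Rin1 and Abl proteins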
Ras and Rab interactor 1/Tyrosine-protein kinase ABL1, sequence (P00519 whole entry): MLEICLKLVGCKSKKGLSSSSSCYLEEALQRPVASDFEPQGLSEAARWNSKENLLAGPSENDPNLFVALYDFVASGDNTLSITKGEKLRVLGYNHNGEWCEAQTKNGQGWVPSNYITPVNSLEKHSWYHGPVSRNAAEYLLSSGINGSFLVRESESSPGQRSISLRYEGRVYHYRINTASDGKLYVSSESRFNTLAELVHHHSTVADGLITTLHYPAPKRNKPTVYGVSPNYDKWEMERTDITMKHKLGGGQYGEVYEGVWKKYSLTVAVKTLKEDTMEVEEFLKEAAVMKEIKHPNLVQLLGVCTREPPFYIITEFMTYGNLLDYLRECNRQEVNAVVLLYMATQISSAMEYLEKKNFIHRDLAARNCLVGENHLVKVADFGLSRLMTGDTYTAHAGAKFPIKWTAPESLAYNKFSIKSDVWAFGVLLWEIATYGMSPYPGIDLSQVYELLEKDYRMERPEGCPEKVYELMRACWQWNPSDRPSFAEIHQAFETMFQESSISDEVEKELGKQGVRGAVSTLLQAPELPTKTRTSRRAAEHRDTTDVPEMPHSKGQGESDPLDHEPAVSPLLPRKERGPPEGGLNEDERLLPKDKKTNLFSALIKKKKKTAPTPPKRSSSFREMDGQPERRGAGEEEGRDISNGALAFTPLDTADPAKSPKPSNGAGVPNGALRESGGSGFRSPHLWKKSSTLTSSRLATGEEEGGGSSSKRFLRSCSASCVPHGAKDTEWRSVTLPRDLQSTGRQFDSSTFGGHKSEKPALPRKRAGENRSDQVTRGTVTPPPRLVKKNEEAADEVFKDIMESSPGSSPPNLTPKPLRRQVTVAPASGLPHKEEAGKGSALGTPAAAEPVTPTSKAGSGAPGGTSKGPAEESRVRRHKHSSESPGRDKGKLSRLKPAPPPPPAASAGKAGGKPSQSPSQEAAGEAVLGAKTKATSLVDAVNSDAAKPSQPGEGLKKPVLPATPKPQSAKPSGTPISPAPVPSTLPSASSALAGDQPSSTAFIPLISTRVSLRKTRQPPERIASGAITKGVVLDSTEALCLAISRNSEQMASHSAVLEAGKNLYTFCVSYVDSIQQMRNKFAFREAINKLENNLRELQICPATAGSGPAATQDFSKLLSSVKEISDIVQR
Ras and Rab interactor 1/Tyrosine-protein kinase ABL1, sequence (Q13671 whole entry): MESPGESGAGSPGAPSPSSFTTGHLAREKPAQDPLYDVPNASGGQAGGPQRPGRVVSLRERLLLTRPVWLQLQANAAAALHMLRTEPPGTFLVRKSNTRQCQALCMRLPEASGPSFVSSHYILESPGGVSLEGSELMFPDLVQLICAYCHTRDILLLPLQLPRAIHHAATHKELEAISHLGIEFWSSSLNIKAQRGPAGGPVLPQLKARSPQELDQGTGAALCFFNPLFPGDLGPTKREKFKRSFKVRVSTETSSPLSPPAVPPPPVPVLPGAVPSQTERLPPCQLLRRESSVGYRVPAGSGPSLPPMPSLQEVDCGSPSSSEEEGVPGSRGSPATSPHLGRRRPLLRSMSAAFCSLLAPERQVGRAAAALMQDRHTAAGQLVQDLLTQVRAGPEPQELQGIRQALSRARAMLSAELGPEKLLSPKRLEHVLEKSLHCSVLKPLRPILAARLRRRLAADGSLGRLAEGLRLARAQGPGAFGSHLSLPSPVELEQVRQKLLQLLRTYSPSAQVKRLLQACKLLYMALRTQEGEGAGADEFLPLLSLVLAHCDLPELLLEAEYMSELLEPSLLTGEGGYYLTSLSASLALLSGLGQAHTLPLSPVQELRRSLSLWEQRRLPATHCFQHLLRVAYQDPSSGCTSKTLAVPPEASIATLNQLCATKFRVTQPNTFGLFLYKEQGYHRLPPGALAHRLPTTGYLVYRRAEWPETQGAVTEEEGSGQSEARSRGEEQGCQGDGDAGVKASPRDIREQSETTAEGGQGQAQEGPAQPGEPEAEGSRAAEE

Paired box protein Pax-8 = Paired box protein Pax-8 (Homo sapiens, UniProt Q06710); experiment: PAX8 transcriptional activity inhibition in RMG-I – RMG-I cells, luciferase, cherry-pick, dose response (AID 687027); assay type: functional, cell-based;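 note: luciferase reporter driven by Pax8 target thyroperoxidase promoter measured by SteadyGlo luminescence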
Paired box protein Pax-8, sequence (Q06710 whole entry): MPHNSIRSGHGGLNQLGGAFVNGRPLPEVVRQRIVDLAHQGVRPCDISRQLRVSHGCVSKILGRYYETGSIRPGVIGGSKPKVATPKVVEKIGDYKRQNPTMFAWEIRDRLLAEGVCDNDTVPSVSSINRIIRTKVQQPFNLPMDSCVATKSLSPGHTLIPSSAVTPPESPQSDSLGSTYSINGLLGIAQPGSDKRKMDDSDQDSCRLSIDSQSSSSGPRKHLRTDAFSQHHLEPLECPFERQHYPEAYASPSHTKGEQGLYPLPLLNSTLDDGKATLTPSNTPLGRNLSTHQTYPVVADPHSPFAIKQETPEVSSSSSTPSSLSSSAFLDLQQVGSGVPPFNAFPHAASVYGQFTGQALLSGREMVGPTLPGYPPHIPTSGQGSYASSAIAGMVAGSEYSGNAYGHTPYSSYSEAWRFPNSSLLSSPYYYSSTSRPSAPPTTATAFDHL

[22] = OVCAR8 cell viability loss – plate reader, dry powder samples, PAX8 project, dose response (AID 743197); assay type: functional, cell-based; details: OVCAR-8
[23] = T. cruzi growth inhibition in host cells, dose response, cell-based, plate reader, dry powder, set 2 (AID 652275); assay type: functional

## COc1ncccc1-c1nnn(-c2ccc(F)cc2)n1
Bcl-2-related protein A1 [1]
  IC50: > 100 µM (not active)
Bcl-2-related protein A1 [2]
  IC50: > 100 µM (not active)
[3]
  AC50: 26 µM (active)

## Cc1nn(CCc2nnc(S)n2-c2cccc(Cl)c2)c(C)c1[N+](=O)[O-]
Beta-lactamase [4]
  IC50: > 59.6 µM (inactive)
Beta-lactamase [5]
  IC50: > 59.6 µM (inactive)
Beta-lactamase [6]
  IC50: > 59.6 µM (inactive)

## CC(C)Cn1c(S)nnc1-c1ccco1
Beta-lactamase [4]
  IC50: > 59.6 µM (inactive)
Beta-lactamase [5]
  IC50: > 59.6 µM (inactive)
Beta-lactamase [6]
  IC50: > 59.6 µM (inactive)

## CCOc1ccc2oc(C(=O)Nc3cc(C)ccn3)c(C)c2c1
[3]
  AC50: 26 µM (active)

## CCCCn1c(=O)[nH]c(=O)c2c(C(=O)OCC)cc(-c3cccs3)nc21
Cells [7]
  EC50: > 350 µM (not active)
Cells [8]
  EC50: > 350 µM (not active)
[9]
  IC50: 0.582 µM (active)

## S=C(c1ccc(OCc2ccccc2)cc1)N1CCCC1
Caspase-3
  IC50: 8.38 µM (active)
[10]
  IC50: 14 µM (active)
[11]
  IC50: 11.1 µM (active)
[12]
  IC50: 3.69 µM (active)
[9]
  IC50: > 9.98 µM (inactive)

## O=C(NCCn1cc(SCc2ccccc2F)c2ccccc21)c1c(F)cccc1F
[13]
  EC50: > 29.9 µM (inactive)
[14]
  IC50: 3.49 µM (active)
[15]
  IC50: 38.4 µM (inactive)
[16]
  EC50: > 29.9 µM (inactive)

## O=C(O)[C@H]1CCCC[C@H]1C(=O)NCCc1ccccc1
Cells [17]
  IC50: > 29.9 µM (inactive)
[18]
  EC50: 0.37 µM (active)
[19]
  IC50: 7.35 µM (active)
Cells [20]
  EC50: > 29.9 µM (inactive)

## Cc1cc2nc3n(c2cc1C)CC1CC(C(=O)NCCc2cccs2)N(C)C31 (stereo not drawn)
Cells [17]
  IC50: > 29.9 µM (inactive)
[18]
  EC50: 2 µM (active)
[19]
  IC50: 8.5 µM (active)
Cells [20]
  EC50: > 29.9 µM (inactive)

## COc1ccc(-n2nnnc2C(C2CC2)N2CCC(n3c(O)nc4ccccc43)CC2)cc1 (stereo not drawn)
[21]
  IC50: 19.8 µM (inactive)
[13]
  EC50: > 29.9 µM (inactive)
[14]
  IC50: > 9.96 µM (active)
[15]
  IC50: > 29.9 µM (inactive)
[16]
  EC50: 22.4 µM (inactive)

## C[C@@H]1CCCCO[C@H](CN(C)C(=O)Nc2ccc(C(F)(F)F)cc2)[C@@H](C)CN([C@@H](C)CO)C(=O)c2cc(NS(=O)(=O)c3ccc(F)cc3)ccc2O1
Paired box protein Pax-8
  AC50: 4.88 µM (active)
[22]
  AC50: > 70 µM (inactive)

## C[C@H]1CN([C@@H](C)CO)C(=O)c2cccc(NC(=O)c3ccncc3)c2O[C@@H]1CN(C)Cc1cccc(Cl)c1
[23]
  AC50: 0.0155 µM (active)
